Where two headings read alike, the source gives them in different places. Marks after values point to notes of the source that are not given here.
Columns and labels:
[1] = Single dose fasted bioavailability study, 4 mg immediate release carbinoxamine maleate tablet; assay type: in vivo; design: Plasma concentration of carbinoxamine: unit not given here; conditions: for Cmax / Tmax / half-life / AUC(0-t) / MRT: 4 mg
From the text: (§1) A single dose fasted bioavailability study was undertaken using four milligram immediate release carbinoxamine maleate tablets formulated in an immediate release format. Samples were taken over a forty eight hours period after administration of the drug, and the first meal was allowed to be ingested four hours after administration. Table 3 compares the observed pharmacokinetics from this test to those observed by Stockis et al. in Arzneim.-Forsch 1992, 42(12):1478-81, and Stockis et al. in Arzneim.-Forsch 1995, 45(9) 1009-1012.
FIG. 1 is a mean plasma concentration-time profile of the carbinoxamine after administering the immediate release tablet in the fasted state from time 0 to time 48 hours. Graph (A) is the linear ordinate; graph (B) is the log-linear ordinate.

[2] = Literature 1 (Stockis et al. 1992): bioavailability of 8 mg aqueous solution and 8 mg retard capsule of carbinoxamine; conditions: in vivo, normalized to 4 mg dose
Protocol: The pharmacokinetics of carbinoxamine maleate have been reported in the literature. Stockis et al., Arzneim.-Forsch 1992, 42(12):1478-81, studied the bioavailability of an 8 mg aqueous solution of carbinoxamine and an 8 mg retard capsule of carbinoxamine.
as §1

[3] = cited from earlier work; for AUC(0-t): AUC0-6
[4] = cited from earlier work; for AUC(0-t): AUC0-24
[5] = human, plasma, po, Our study, Tablet 4 mg
[6] = human, plasma, po, fasted, Mean
[7] = human, plasma, po, fasted, subject 101
[8] = human, plasma, po, fasted, subject 102
[9] = human, plasma, po, fasted, subject 103
[10] = po, Literature 1, Retard capsule 8 mg
[11] = Literature 1, Aqueous solution 8 mg
[12] = 4 mg retard capsule, single administration
[13] = 4 mg retard capsule, successive administrations
[14] = Literature 2, Aqueous solution 4 mg
[15] = Literature 2, Retard capsule 4 mg
[16] = Literature 2, Retard capsule SS 4 mg, steady-state (q12 h)
[17] = Literature 1, Retard capsule 8 mg

Compound: CN(C)CCOC(c1ccc(Cl)cc1)c1ccccn1 (centres unmarked) [carbinoxamine, 2-[(4-chlorophenyl)-2-pyridinylmethoxy]-N,N-dimethylethanamine (Z)-2-butenedioate (1:1)]
- Plasma concentration of carbinoxamine ([1]; fasted, 0 h, subject 101T): blq
- Plasma concentration of carbinoxamine ([1]; fasted, 0 h, subject 102T): blq
- Plasma concentration of carbinoxamine ([1]; fasted, 0 h, subject 103T): blq
- Plasma concentration of carbinoxamine ([1]; fasted, 0.5 h, T-Mean): 315.41
- Plasma concentration of carbinoxamine ([1]; fasted, 0.5 h, subject 101T): 434.78
- Plasma concentration of carbinoxamine ([1]; fasted, 0.5 h, subject 102T): 459.42
- Plasma concentration of carbinoxamine ([1]; fasted, 0.5 h, subject 103T): 52.04
- Plasma concentration of carbinoxamine ([1]; fasted, 1 h, T-Mean): 4153.31
- Plasma concentration of carbinoxamine ([1]; fasted, 1 h, subject 101T): 5908.19
- Plasma concentration of carbinoxamine ([1]; fasted, 1 h, subject 102T): 4949.36
- Plasma concentration of carbinoxamine ([1]; fasted, 1 h, subject 103T): 1602.38
- Plasma concentration of carbinoxamine ([1]; fasted, 2 h, T-Mean): 6406.31
- Plasma concentration of carbinoxamine ([1]; fasted, 2 h, subject 101T): 6488.14
- Plasma concentration of carbinoxamine ([1]; fasted, 2 h, subject 102T): 5684.72
- Plasma concentration of carbinoxamine ([1]; fasted, 2 h, subject 103T): 7046.07
- Plasma concentration of carbinoxamine ([1]; fasted, 3 h, T-Mean): 7062.72
- Plasma concentration of carbinoxamine ([1]; fasted, 3 h, subject 101T): 8022.80
- Plasma concentration of carbinoxamine ([1]; fasted, 3 h, subject 102T): 6592.16
- Plasma concentration of carbinoxamine ([1]; fasted, 3 h, subject 103T): 6573.21
- Plasma concentration of carbinoxamine ([1]; fasted, 4 h, T-Mean): 6647.30
- Plasma concentration of carbinoxamine ([1]; fasted, 4 h, subject 101T): 7860.85
- Plasma concentration of carbinoxamine ([1]; fasted, 4 h, subject 102T): 6236.91
- Plasma concentration of carbinoxamine ([1]; fasted, 4 h, subject 103T): 5854.14
- Plasma concentration of carbinoxamine ([1]; fasted, 5 h, T-Mean): 6515.83
- Plasma concentration of carbinoxamine ([1]; fasted, 5 h, subject 101T): 7726.57
- Plasma concentration of carbinoxamine ([1]; fasted, 5 h, subject 102T): 6649.03
- Plasma concentration of carbinoxamine ([1]; fasted, 5 h, subject 103T): 5171.89
- Plasma concentration of carbinoxamine ([1]; fasted, 6 h, T-Mean): 5903.78
- Plasma concentration of carbinoxamine ([1]; fasted, 6 h, subject 101T): 7251.86
- Plasma concentration of carbinoxamine ([1]; fasted, 6 h, subject 102T): 6097.18
- Plasma concentration of carbinoxamine ([1]; fasted, 6 h, subject 103T): 4362.30
- Plasma concentration of carbinoxamine ([1]; fasted, 8 h, T-Mean): 5510.70
- Plasma concentration of carbinoxamine ([1]; fasted, 8 h, subject 101T): 6849.38
- Plasma concentration of carbinoxamine ([1]; fasted, 8 h, subject 102T): 5707.15
- Plasma concentration of carbinoxamine ([1]; fasted, 8 h, subject 103T): 3975.57
- Plasma concentration of carbinoxamine ([1]; fasted, 12 h, T-Mean): 4292.77
- Plasma concentration of carbinoxamine ([1]; fasted, 12 h, subject 101T): 5821.63
- Plasma concentration of carbinoxamine ([1]; fasted, 12 h, subject 102T): 4387.40
- Plasma concentration of carbinoxamine ([1]; fasted, 12 h, subject 103T): 2669.29
- Plasma concentration of carbinoxamine ([1]; fasted, 24 h, T-Mean): 2144.60
- Plasma concentration of carbinoxamine ([1]; fasted, 24 h, subject 101T): 2632.77
- Plasma concentration of carbinoxamine ([1]; fasted, 24 h, subject 102T): 2395.51
- Plasma concentration of carbinoxamine ([1]; fasted, 24 h, subject 103T): 1405.53
- Plasma concentration of carbinoxamine ([1]; fasted, 36 h, T-Mean): 1371.30
- Plasma concentration of carbinoxamine ([1]; fasted, 36 h, subject 101T): 1541.30
- Plasma concentration of carbinoxamine ([1]; fasted, 36 h, subject 102T): 1516.80
- Plasma concentration of carbinoxamine ([1]; fasted, 36 h, subject 103T): 1055.79
- Plasma concentration of carbinoxamine ([1]; fasted, 48 h, T-Mean): 876.29
- Plasma concentration of carbinoxamine ([1]; fasted, 48 h, subject 101T): 1102.33
- Plasma concentration of carbinoxamine ([1]; fasted, 48 h, subject 102T): 1003.18
- Plasma concentration of carbinoxamine ([1]; fasted, 48 h, subject 103T): 528.37
- Cmax [1, 5]: 7.2 ng/mL
- Tmax [1, 5]: 3.3 h
- half-life [1, 5]: 18.3 h
- AUC(0-t) [1, 6]: 161 ng·h/mL
- Cmax [1, 6]: 7.24 ng/mL
- MRT [1, 6]: 24.1 h
- Tmax [1, 6]: 3.33 h
- half-life [1, 6]: 18.4 h
- AUC(0-t) ([1]; human, plasma, po, fasted, Mean, first AUC column): 137 ng·h/mL
- Cmax [1, 7]: 8.02 ng/mL
- MRT [1, 7]: 24.7 h
- Tmax [1, 7]: 3 h
- half-life [1, 7]: 19.1 h
- AUC(0-t) ([1]; human, plasma, po, fasted, subject 101, first AUC column): 169 ng·h/mL
- AUC(0-t) ([1]; human, plasma, po, fasted, subject 101, second AUC column): 200 ng·h/mL
- Cmax [1, 8]: 6.65 ng/mL
- MRT [1, 8]: 25.9 h
- Tmax [1, 8]: 5 h
- half-life [1, 8]: 19.1 h
- AUC(0-t) ([1]; human, plasma, po, fasted, subject 102, first AUC column): 143 ng·h/mL
- AUC(0-t) ([1]; human, plasma, po, fasted, subject 102, second AUC column): 171 ng·h/mL
- Cmax [1, 9]: 7.05 ng/mL
- MRT [1, 9]: 21.7 h
- Tmax [1, 9]: 2 h
- half-life [1, 9]: 16.8 h
- AUC(0-t) ([1]; human, plasma, po, fasted, subject 103, first AUC column): 98.4 ng·h/mL
- AUC(0-t) ([1]; human, plasma, po, fasted, subject 103, second AUC column): 111 ng·h/mL
- AUC ([1]; human, plasma, po, Our study, Tablet 4 mg, read-out: AUC0-* ·): 161 ng·h/mL
- AUC(0-t) ([1]; plasma, po, Our study, Tablet 4 mg, AUC0-48): 137 ng·h/mL
- AUC(0-t) [2, 10]: 119 ng·h/mL
- Cmax [2, 10]: 8.45 ng/mL
- AUC(0-t) [2, 11]: 143 ng·h/mL
- Cmax [2, 11]: 12 ng/mL
- Cmax [3, 12]: 4.5 ng/mL
- Tmax [3, 12]: 6.2 h
- half life [3, 12]: 30 h
- Cmax [3, 13]: 13.5 ng/mL
- Tmax [3, 13]: 4.8 h
- half life [3, 13]: 22 h
- AUC(0-t) [3, 14]: 64^c ng/ml * h
- Cmax [3, 14]: 6.5 ng/mL
- T1/2 [3, 14]: 15 h
- Tmax [3, 14]: 2.6 h
- AUC(0-t) [3, 15]: 57^c ng/ml * h
- Cmax [3, 15]: 4.5 ng/mL
- T1/2 [3, 15]: 30 h
- Tmax [3, 15]: 6.2 h
- AUC0-* · [3, 16]: 125 ng·h/mL
- Cmax [3, 16]: 13.5 ng/mL
- T1/2 [3, 16]: 22 h
- Tmax [3, 16]: 4.8 h
- Cmax ([4]; 8 mg aqueous solution): 24 ng/mL
- half-life ([4]; 8 mg aqueous solution): 10.6 h
- Cmax ([4]; 8 mg retard capsule): 16.9 ng/mL
- Tmax ([4]; 8 mg retard capsule): 8 h
- half-life ([4]; 8 mg retard capsule): 14.5 h
- AUC(0-t) [4, 11]: 386^b ng/ml * h
- Cmax [4, 11]: 24 ng/mL
- T1/2 [4, 11]: 10.6 h
- AUC(0-t) [4, 17]: 238^b ng/ml * h
- Cmax [4, 17]: 16.9 ng/mL
- T1/2 [4, 17]: 14.5 h
